These results are taken from patent US6586216B2 (Purdue Research Foundation, priority 1997, dated 2003).

SMILES strings stand for the structures. Several values for one entry are separate records, joined by “and”; a condition that tells them apart may be missing. Equal entries are not always repeated. Where two headings read alike, the source gives them in different places. A value given as a limit tells only on which side of the number the result lay.

In assay [1] the target is T1, Bacillus subtilis glutamine PRPP amidotransferase variant S283A (Bacillus subtilis, UniProt P00497, S294A).
T1 construct: Enzymes of the B. subtilis class are synthesized with an NH2 terminal propeptide; made in house; host or cells: E. coli strain TX158 (purF), plasmid pBsF/S283A
The assay is described as follows: Inhibition of enzyme activity (glutamate formation) by nucleotides, mutant S283A. The assay is classed as biochemical. The conditions noted are these: for increase of concentration for 50% inhibition relative to wild type: ADP-GMP mixture. An excerpt: (§1) Plasmid pGZ1 was used for production of the wild type enzyme. Plasmid pGZ1 contains a 1.6 kb EcoRI-HindIII purF^+ fragment (Makaroff, C. A., Zalkin, H., Switzer, R. L., and Vollmer, S. J. (1983) J. Biol. Chem. 258, pp. 10586-10593) inserted into the corresponding sites of pUC18. For construction of mutants, the EcoRI-HindIII purF^+ DNA was transferred to pUC118 to yield pBsF. Mutations were constructed by the method of Kunkel et al. (Kunkel, T. A., Roberts, J. D., and Zakour, R. A. (1987) Methods Enzymol. 154, pp. 367-382) using pBsF phagemid DNA. The resulting plasmids were named pBsF/S283A, pBsF/K305Q, pBsF/R307Q, and pBsF/S347A.
(§2) Enzyme activity was assayed by measuring the initial rate of formation of the product glutamate. […] Incubation was at 37° C. for 6 min. The reaction was linear with time for at least 20 min under these conditions of assay. Reactions were quenched in a boiling water bath for 2 min, and glutamate was determined by the glutamate dehydrogenase method. The control reaction mixture contained all the components except PRPP.
(§3) Inhibition by nucleotides was determined by the standard assay to which varied concentrations of nucleotide were added. Synergistic inhibition was determined by varying the concentration of one nucleotide in the presence of a fixed concentration of a second nucleotide. Relative activity (see FIG. 1) refers to the enzyme activity at a given concentration of the varied nucleotide relative to that in the absence of the varied nucleotide. I0.5 values were calculated from plots of relative activity versus varied nucleotide concentration.
(§4) Site directed mutagenesis was utilized to modify amino acids comprising the A site and C site domains of the glutamine PRPP amidotransferase. These modified forms of amidotransferase were analyzed to determine the impact of the mutations on end-product inhibition and enzymatic activity. Inhibition by nucleotides was determined as described in Example 1.

The target in assay [2] is T2, glutamine PRPP amidotransferase S347A mutant enzyme (Bacillus subtilis, UniProt P00497, S358A).
T2 construct: Enzymes of the B. subtilis class are synthesized with an NH2 terminal propeptide and an Fe—S center; made in house; host or cells: E. coli strain TX158 (purF) with plasmid pBsF/S347A
The assay is classed as biochemical. As for the experimental part: Enzyme activity was assayed by measuring the initial rate of formation of the product glutamate. […] Incubation was at 37° C. for 6 min. […] Reactions were quenched in a boiling water bath for 2 min, and glutamate was determined by the glutamate dehydrogenase method.
as §3
These modified forms of amidotransferase were analyzed to determine the impact of the mutations on end-product inhibition and enzymatic activity. Inhibition by nucleotides was determined as described in Example 1.

Assay [3] addresses T3, Bacillus subtilis glutamine PRPP amidotransferase, wild type (Bacillus subtilis, UniProt P00497).
T3 construct: Enzymes of the B. subtilis class are synthesized with an NH2 terminal propeptide; made in house; host or cells: E. coli strain TX158 (purF), plasmid pGZ1
The assay is described as follows: Nucleotide binding by equilibrium dialysis, wild type enzyme. The conditions noted are these: for Capacity: at saturation. As to the method: Plasmid pGZ1 was used for production of the wild type enzyme. […] For construction of mutants, the EcoRI-HindIII purF^+ DNA was transferred to pUC118 to yield pBsF. […] The resulting plasmids were named pBsF/S283A, pBsF/K305Q, pBsF/R307Q, and pBsF/S347A.
For enzyme purification, all buffers were sparged with nitrogen gas prior to use in order to minimize oxidation of the enzyme's Fe-S cluster. All steps were carried out at 4° C. Cells were resuspended in 4 mL/gram of buffer A [50 mM Tris-HCl (pH 8.0), 10 mM MgCl2, 0.1 mM EDTA, 5 mM DTT, and 2 mM AMP] containing 1 mM PMSF, and were disrupted by two passes through a French Press. The cell extract was obtained by centrifugation for 1 h at 27,000 g. Protamine sulfate (5 mg per gram of cells) was added to the extract to precipitate DNA. […] After centrifugation, enzyme in the brown pellet was recovered by extraction twice with 30% saturated ammonium sulfate. A small colorless pellet that remained was discarded, and the dark brown enzyme solution in buffer A containing residual ammonium sulfate was stored as beads in liquid nitrogen. […] For assays of activity, the enzyme was diluted 1:1000 in […] Tris-HCl (pH 8.0) containing 1 mg/mL bovine serum albumin. For measurements of ligand binding by equilibrium dialysis and for crystallization experiments, the enzyme was dialyzed anaerobically against buffer B [50 mM Tris-HCl (pH 8.0), 0.1 mM EDTA, and 5 mM DTT] prior to being used.
Nucleotide binding was determined by equilibrium dialysis using chambers of 150 μL that were separated by a 12000-14000 molecular weight dialysis membrane. […] In some experiments, the chambers with radioactive nucleotide also contained a fixed concentration of a second non-radioactive nucleotide. The other chamber contained 50 mM Tris-HCl (pH 7.5) and 50-200 μM enzyme, calculated as the subunit concentration, in a volume of 100 μL. Dialysis was carried out for 20 h at room temperature (˜22° C.) in a rotating apparatus. Samples of 80 μL were retrieved from each chamber and were counted for radioactivity. All experiments were performed in an anaerobic glovebox. […] Equilibrium binding data were fit to the Hill equation (Y=C [free ligand]^n/[…]+[free ligand]^n, where Y is the fractional saturation, C is the binding capacity, Kd is the dissociation constant, and n is the Hill coefficient) by nonlinear regression using Ultrafit software (Biosoft, Cambridge, UK).
(In general: In equilibrium dialysis free small molecules cross a membrane that holds back macromolecules.)

The target of assay [4] is T4, Bacillus subtilis glutamine PRPP amidotransferase variant R307Q (Bacillus subtilis, UniProt P00497, R318Q).
T4 construct: Enzymes of the B. subtilis class are synthesized with an NH2 terminal propeptide; made in house; host or cells: E. coli strain TX158 (purF), plasmid pBsF/R307Q
In words: Inhibition of enzyme activity (glutamate formation) by nucleotides, mutant R307Q. The assay is classed as biochemical.
Excerpt: as §1, §2, §3, §4

The mark [5] stands for this setting: I0.5, no fixed nucleotide, 2.5 mM PRPP, pH 8.0, 37° C.
Setting [6] is: no fixed nucleotide, pH 7.5, ~22° C., half-saturation of the two sites, read-out: Kd (apparent).

T4 sequence (P00497 12-476 R318Q): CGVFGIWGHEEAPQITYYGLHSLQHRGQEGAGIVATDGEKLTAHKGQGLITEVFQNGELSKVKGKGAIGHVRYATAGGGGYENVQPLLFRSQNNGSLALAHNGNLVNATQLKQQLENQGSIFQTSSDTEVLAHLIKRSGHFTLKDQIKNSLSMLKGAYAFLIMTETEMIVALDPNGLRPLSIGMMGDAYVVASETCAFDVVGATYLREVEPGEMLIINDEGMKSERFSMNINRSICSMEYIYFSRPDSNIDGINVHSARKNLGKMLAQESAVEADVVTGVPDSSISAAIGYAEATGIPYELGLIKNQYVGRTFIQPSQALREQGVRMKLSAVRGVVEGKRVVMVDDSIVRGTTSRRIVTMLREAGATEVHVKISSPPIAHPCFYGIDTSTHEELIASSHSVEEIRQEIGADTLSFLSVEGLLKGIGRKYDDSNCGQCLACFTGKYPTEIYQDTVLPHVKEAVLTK
T2 sequence (P00497 12-476 S358A): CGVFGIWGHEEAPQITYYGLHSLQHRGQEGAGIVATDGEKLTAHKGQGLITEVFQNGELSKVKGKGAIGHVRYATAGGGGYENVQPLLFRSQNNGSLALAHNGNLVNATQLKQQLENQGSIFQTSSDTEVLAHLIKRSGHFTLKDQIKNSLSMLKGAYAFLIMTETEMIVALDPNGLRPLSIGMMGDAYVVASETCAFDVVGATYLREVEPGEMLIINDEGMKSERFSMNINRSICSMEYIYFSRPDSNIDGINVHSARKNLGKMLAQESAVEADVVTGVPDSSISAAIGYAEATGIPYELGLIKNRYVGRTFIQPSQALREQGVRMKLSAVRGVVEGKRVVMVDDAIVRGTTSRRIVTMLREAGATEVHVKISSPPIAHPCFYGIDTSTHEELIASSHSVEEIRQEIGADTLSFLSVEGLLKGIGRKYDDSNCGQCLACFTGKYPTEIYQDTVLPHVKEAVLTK
T1 sequence (P00497 12-476 S294A): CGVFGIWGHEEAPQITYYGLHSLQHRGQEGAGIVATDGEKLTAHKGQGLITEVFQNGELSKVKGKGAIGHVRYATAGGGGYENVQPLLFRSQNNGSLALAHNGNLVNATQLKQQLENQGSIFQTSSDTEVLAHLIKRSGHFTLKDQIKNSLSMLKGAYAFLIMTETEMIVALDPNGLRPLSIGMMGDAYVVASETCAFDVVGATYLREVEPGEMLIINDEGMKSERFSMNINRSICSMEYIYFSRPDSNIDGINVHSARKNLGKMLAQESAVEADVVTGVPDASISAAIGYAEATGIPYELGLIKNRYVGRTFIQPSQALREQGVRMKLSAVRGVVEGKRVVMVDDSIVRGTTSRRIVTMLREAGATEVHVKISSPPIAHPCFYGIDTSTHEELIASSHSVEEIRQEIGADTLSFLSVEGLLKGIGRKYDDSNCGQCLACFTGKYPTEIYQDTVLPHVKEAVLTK
T3 sequence (P00497 12-476): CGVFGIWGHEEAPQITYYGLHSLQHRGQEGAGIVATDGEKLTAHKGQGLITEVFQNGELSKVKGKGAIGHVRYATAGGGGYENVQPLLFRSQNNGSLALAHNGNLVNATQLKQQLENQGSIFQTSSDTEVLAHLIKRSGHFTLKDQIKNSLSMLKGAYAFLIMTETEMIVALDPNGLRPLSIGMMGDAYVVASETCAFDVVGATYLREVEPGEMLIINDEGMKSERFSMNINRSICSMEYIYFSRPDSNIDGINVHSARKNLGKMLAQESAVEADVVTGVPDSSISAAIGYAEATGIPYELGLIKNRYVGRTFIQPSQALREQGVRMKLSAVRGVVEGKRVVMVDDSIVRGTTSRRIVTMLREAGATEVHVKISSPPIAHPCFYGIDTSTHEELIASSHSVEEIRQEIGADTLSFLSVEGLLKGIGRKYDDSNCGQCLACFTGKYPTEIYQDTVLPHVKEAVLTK

As for `Nc1ncnc2c1ncn2[C@@H]1O[C@H](COP(=O)(O)OP(=O)(O)O)[C@@H](O)[C@H]1O` [ADP], the “increase of concentration for 50% inhibition relative to wild type” value in assay [1] is reported as 30 fold. For the same compound, the concentration for half-maximal inhibition (IC50) in assay [1] (I0.5, fixed GMP 0.50 mM) came to 4800 µM; in assay [1] (setting [5]), 24000 µM; in assay [4] (I0.5, fixed GMP 0.50 mM), 2400 µM; in assay [4] (I0.5, fixed GMP 5.0 mM), 180 µM; in assay [4] (setting [5]), 28000 µM. Also, the results for the “syn. (decreased I0.5 due to a second nucleotide)” value in assay [1] (fixed GMP 0.50 mM), in assay [4] (fixed GMP 0.50 mM) and in assay [4] (fixed GMP 5.0 mM) were 5.0 fold, 12.0 fold and 156.0 fold, respectively. Also, in assay [1] (no fixed nucleotide), the “I0.5 increase relative to wild type” value is reported as 5-7 fold. In addition, in assay [1] (no fixed nucleotide), the “decreased inhibition relative to wild type” value is given as 5-7 fold. Further, in assay [2] (fixed GMP 1.4 mM (footnote c)), the syn. was determined as 37.0. Moreover, in assay [3] (GMP present), the “decrease of Kd in the presence of GMP” value is 20 fold. For the same compound, the Kd in assay [3] (Kd, GMP fixed at either 0.25 or 1.0 mM) was about 10 µM; in assay [3] (fixed GMP 0.25 mM, read-out: Kd), 10.4 ± 2.7 µM; in assay [3] (fixed GMP 1.0 mM, read-out: Kd) it was 11 µM; in assay [3] (setting [6]), 214 µM and ~214 µM. In addition, the Capacity in assay [3] (fixed GMP 0.25 mM) is 0.82 ± 0.11 Equivalents bound per subunit; in assay [3] (fixed GMP 1.0 mM) it was 0.94 ± 0.14 Equivalents bound per subunit; in assay [3] (no fixed nucleotide), 1.83 Equivalents bound per subunit and 1.83 ± 0.26 Equivalents bound per subunit. Besides, the Hill coefficient in assay [3] (no fixed nucleotide) worked out at 1.8.
As to `Nc1ncnc2c1ncn2[C@@H]1O[C@H](COP(=O)(O)O)[C@@H](O)[C@H]1O` [AMP], the figures for the 50% inhibitory concentration (IC50) in assay [1] (setting [5]) and in assay [4] (setting [5]) were 6100 µM and 2600 µM, respectively. For the same compound, the “I0.5 increase relative to wild type” value in assay [1] (no fixed nucleotide) is on record as 5-7 fold. In assay [1] (no fixed nucleotide), the “decreased inhibition relative to wild type” value is reported as 5-7 fold. The syn. stood at 2.3 in assay [2] (fixed ADP 0.8 mM (footnote c)) and 0.8 in assay [2] (fixed GMP 1.4 mM (footnote c)). Moreover, the Capacity in assay [3] (fixed ADP 0.25 mM) is 0.94 ± 0.16 Equivalents bound per subunit; in assay [3] (fixed ADP 0.5 mM) it was “approximately 0.4 Equivalents bound per subunit”; in assay [3] (fixed GMP 1.0 mM) it was 1.05 ± 0.21 Equivalents bound per subunit; in assay [3] (no fixed nucleotide), 1.57 Equivalents bound per subunit and 1.57 ± 0.27 Equivalents bound per subunit. Moreover, the Kd in assay [3] (fixed ADP 0.25 mM, read-out: Kd) was 77 µM; in assay [3] (fixed GMP 1.0 mM, read-out: Kd), 103 µM; in assay [3] (setting [6]), 240 µM and 239 µM. Also, the “increase of binding affinity by GMP or ADP” value in assay [3] (fixed GMP or ADP) is listed as 2-3 fold. In addition, the Hill coefficient in assay [3] (no fixed nucleotide) was 3.4.
Turning to `Nc1nc2c(ncn2[C@@H]2O[C@H](COP(=O)(O)O)[C@@H](O)[C@H]2O)c(=O)[nH]1` [GMP], in assay [1], the “increase of concentration for 50% inhibition relative to wild type” value is 13 fold. For the same compound, the IC50 in assay [1] (I0.5, fixed ADP 0.5 mM) stood at 2000 µM; in assay [1] (I0.5, fixed ADP 2.5 mM) it was 1700 µM; in assay [1] (setting [5]), 6600 µM; in assay [4] (I0.5, fixed ADP 0.5 mM), 3300 µM; in assay [4] (I0.5, fixed ADP 2.5 mM), 760 µM; in assay [4] (setting [5]), 50000 µM. Further, the “syn. (decreased I0.5 due to a second nucleotide)” value in assay [1] (fixed ADP 0.5 mM) is 3.3 fold; in assay [1] (fixed ADP 2.5 mM), 3.9 fold; in assay [4] (fixed ADP 0.5 mM), 15.0 fold; in assay [4] (fixed ADP 2.5 mM) it was 66.0 fold. In addition, the “inhibition compared with wild type” value in assay [1] (no fixed nucleotide) is reported as “similar”. The syn. in assay [2] (fixed ADP 0.8 mM (footnote c)) was determined as 33.0. For the same compound, in assay [2] (inhibition at the C site, ADP fixed), the “I0.5 increase compared to wild type” value is 3 fold. Also, in assay [3] (ADP bound to the A site), the “increased binding affinity (C site) relative to AMP” value came out at 3 fold. In assay [3] (ADP bound to the A site), the “increased binding affinity (C site) relative to IMP” value stood at 3 fold. Also, the Kd is 25 µM in assay [3] (Kd, fixed ADP 0.5 mM); over 500 µM in assay [3] (Kd, no fixed nucleotide, not detected); over 500 µM in assay [3] (no fixed nucleotide, binding too weak to detect, read-out: Kd). For the same compound, the “Kd for the free enzyme, estimated” value in assay [3] (assuming a synergism of 20-fold) was “approximately 500 μM”. Further, in assay [3] (fixed ADP 0.5 mM), the Capacity is on record as 0.98 ± 0.10 Equivalents bound per subunit.

Broadly, the IC50 is the concentration needed to halve the response being measured. By Hill coefficient is commonly meant the slope factor of the fitted curve.
